Like-named read-outs stand apart in the source and are kept apart here.
Biological target: T1, SIRT1 (Homo sapiens, UniProt Q96EB6)
T1 sequence (Q96EB6 1-747): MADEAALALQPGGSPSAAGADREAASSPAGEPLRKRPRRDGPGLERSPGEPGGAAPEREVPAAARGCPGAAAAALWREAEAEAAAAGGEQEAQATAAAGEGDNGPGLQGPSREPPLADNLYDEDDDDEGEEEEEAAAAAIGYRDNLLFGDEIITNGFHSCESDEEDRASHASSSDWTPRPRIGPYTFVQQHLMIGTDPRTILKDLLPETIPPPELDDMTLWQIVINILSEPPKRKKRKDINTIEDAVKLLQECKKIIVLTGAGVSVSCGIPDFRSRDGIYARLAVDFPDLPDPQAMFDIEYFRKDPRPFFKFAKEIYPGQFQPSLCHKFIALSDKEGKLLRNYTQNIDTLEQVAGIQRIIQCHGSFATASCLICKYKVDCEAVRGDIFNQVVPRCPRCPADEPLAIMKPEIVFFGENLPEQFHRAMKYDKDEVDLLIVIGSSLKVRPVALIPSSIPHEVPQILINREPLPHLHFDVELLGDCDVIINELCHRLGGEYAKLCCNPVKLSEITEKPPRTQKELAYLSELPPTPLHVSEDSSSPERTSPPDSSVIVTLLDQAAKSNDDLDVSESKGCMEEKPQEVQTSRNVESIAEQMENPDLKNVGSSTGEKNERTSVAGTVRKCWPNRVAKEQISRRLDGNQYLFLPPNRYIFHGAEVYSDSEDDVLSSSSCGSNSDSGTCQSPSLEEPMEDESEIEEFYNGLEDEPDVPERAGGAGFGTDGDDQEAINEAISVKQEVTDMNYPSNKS
Assay: Trp mass spectrometry assay (SIRT1 activation)
Format: biochemical
Settings: for Emax: percent maximum fold activation of SIRT1, read-out: Tryp % Fold Act
Description: Mass spectrometry based assays were used to identify modulators of SIRT1 activity. […] The peptide was labeled with the fluorophore 5TMR (excitation 540 nm/emission 580 nm) at the C-terminus. The sequence of the peptide substrate was based on p53 with several modifications. In addition, the methionine residue naturally present in the sequence was replaced with the norleucine because the methionine may be susceptible to oxidation during synthesis and purification. The Trp based assay utilized a peptide having an amino acid residues as follows: Ac-R-H-K-K(Ac)-W-NH2 (SEQ ID NO: 2).
The Trp mass spectrometry assay was conducted as follows. 0.5 μM peptide substrate and 120 μM βNAD^+ were incubated with 10 nM SIRT1 for 25 minutes at 25° C. in a reaction buffer (50 mM HEPES pH 7.5, […] NaCl, 1 mM DTT, 0.05% BSA). The SIRT1 protein was obtained by cloning the SirT1 gene into a T7-promoter containing vector, which was then expressed in BL21(DE3) bacterial cells and purified as described in further detail below. Test compound was added at varying concentrations to this reaction mixture and the resulting reactions were monitored. After the 25 minute incubation with SIRT1, 10 μL of 10% formic acid was added to stop the reaction. The resulting reactions were sealed and frozen for later mass spec analysis. The relative SIRT1 activity was then determined by measuring the amount of 0-acetyl-ADP-ribose (OAADPR) formed (or, alternatively, the amount of deacetylated Trp peptide generated) by the NAD-dependent sirtuin deacetylation reaction in the presence of varying concentrations of the test compound versus control reactions lacking the test compound. The degree to which the test agent activated deacetylation by SIRT1 was expressed as EC1.5 (i.e., the concentration of compound required to increase SIRT1 activity by 50% over the control lacking test compound), and Percent Maximum Activation (i.e., the maximum activity relative to control (100%) obtained for the test compound).
A control for activation of sirtuin activity was conducted using 10 nM of sirtuin protein, with 1 μL of DMSO in place of compound, to determine the amount of deacetylation of the substrate at a given time point within the linear range of the assay. This time point was the same as that used for test compounds and, within the linear range, the endpoint represents a change in velocity.
For the above assay, SIRT1 protein was expressed and purified as follows. The SirT1 gene was cloned into a T7-promoter containing vector and transformed into BL21(DE3). The protein was expressed by induction with 1 mM IPTG as an N-terminal His-tag fusion protein at 18° C. overnight and harvested at 30,000×g. Cells were lysed with lysozyme in lysis buffer (50 mM Tris-HCl, 2 mM Tris[2-carboxyethyl] phosphine (TCEP), 10 μM ZnCl2, 200 mM NaCl) and further treated with sonication for 10 min for complete lysis. The protein was purified over a Ni-NTA column (Amersham) and fractions containing pure protein were pooled, concentrated and run over a sizing column (Sephadex S200 26/60 global). The peak containing soluble protein was collected and run on an Ion-exchange column (MonoQ). Gradient elution (200 mM-500 mM NaCl) yielded pure protein. This protein was concentrated and dialyzed against dialysis buffer (20 mM Iris-HCl, 2 mM TCEP) overnight. The protein was aliquoted and frozen at −80° C. until further use.

[1] = concentration of test compound that results in 150% activation of SIRT1, Trp peptide substrate
[2] = Trp mass spectrometry assay, EC1.5 = concentration giving 150% activation of SIRT1
[3] = Trp mass spectrometry assay, EC1.5 = concentration of test compound that results in 150% activation of SIRT1

SMILES | Tryp AVG EC1.5 (μM) [1] | Emax (Trp peptide substrate) [%] | Emax (Trp mass spectrometry assay) [%] | Tryp AVG EC1.5 (μM) [2] | Tryp AVG EC1.5 (μM) [3]
O=C(CCCC[C@@H]1SCC2NC(=O)NC21)NCCCCCC(=O)NCc1ccc(NC(=O)N2c3nc(-c4cccc(C(F)(F)F)c4)ccc3N3CCC[C@H]2C3)cc1 (stereo partly drawn) [Example 430] | A (EC1.5<1 μM) | ≥ 150 |  |  | 
Cn1nccc1-c1ccc2c(n1)N(C(=O)Nc1cccnc1)[C@H]1CCN2C1 [Example 524] | B (EC1.5 1-25 μM) | ≥ 150 |  |  | 
O=C(Nc1ccccn1)N1c2nc(-c3cccc(C(F)(F)F)n3)ccc2N2CC[C@H]1C2 [Example 336] | B (EC1.5 1-25 μM) | ≥ 150 |  |  | 
Cc1cc(-c2ccc3c(n2)N(C(=O)Nc2ccc4c(cnn4C)c2)[C@H]2CCN3C2)ccn1 [Example 502] | A (EC1.5<1 μM) | ≥ 150 |  |  | 
Cc1cnccc1NC(=O)N1c2nc(-c3cccc(F)c3)ccc2N2CC[C@H]1C2 [Example 62] |  |  | ≥ 150 |  | 
CS(=O)(=O)c1cccc(-c2ccc3c(n2)N(C(=O)Nc2cncc(-c4cnco4)c2)[C@H]2CCN3C2)c1 [Example 724] |  |  | ≥ 150 | A (EC1.5<1 μM) | 
COc1cncc(NC(=O)N2c3nc(-c4cccc(N5CCCC5)c4)ccc3N3CC[C@H]2C3)n1 [Example 366] | A (EC1.5<1 μM) | ≥ 150 |  |  | 
COc1cc(NC(=O)N2c3nc(-c4cccc(Cl)c4)ccc3N3C[C@@H](O)[C@H]2C3)ncn1 [Example 679] |  |  | ≥ 150 | B (EC1.5 1-25 μM) | 
Cc1cc(-c2ccc3c(n2)N(C(=O)Nc2nc(C)c(C)s2)[C@H]2CCN3C2)ccn1 [Example 481] | A (EC1.5<1 μM) | ≥ 150 |  |  | 
CC(C)(C)OC(=O)NCCn1cc(-c2cccc(NC(=O)N3c4nc(-c5cccc(C(F)(F)F)c5)ccc4N4CCC[C@H]3C4)c2)nn1 [Example 604] | A (EC1.5<1 μM) | ≥ 150 |  |  | 
O=C(Nc1ccc(F)cn1)N1c2nc(-c3cccc(C(F)(F)F)c3)ccc2N2CC[C@@H]1C2 [Example 203] |  |  | ≥ 150 |  | B (EC1.5 1-25 μM)
Cc1nc(NC(=O)N2c3nc(-c4cccc(N(C)C)c4)ccc3N3CCC[C@@H]2C3)sc1C [Example 252] | C (EC1.5>25 μM) | ≥ 150 |  |  | 
CC(=O)N1CCC(c2cccc(NC(=O)N3c4nc(-c5cccc(C(F)(F)F)c5)ccc4N4CC[C@H]3C4)c2)C1 (stereo partly drawn) [Example 635] |  |  | ≥ 150 | A (EC1.5<1 μM) | 
O=C(Nc1cnccn1)N1c2nc(-c3cccc(C(F)(F)F)c3)ccc2N2CCC[C@H]1C2 [Example 27] |  |  | ≥ 150 |  | 
O=C(Nc1cccc(CN2CCOCC2)c1)N1c2nc(-c3cccc(C(F)(F)F)c3)ccc2N2CC[C@H]1C2 [Example 629] |  |  | ≥ 150 | A (EC1.5<1 μM) | 
O=C(Nc1cccc(-c2cnco2)n1)N1c2nc(-c3cncc(C(F)(F)F)c3)ccc2N2C[C@@H](O)[C@H]1C2 [Example 703] |  |  | ≥ 150 | A (EC1.5<1 μM) | 
O=C(Nc1nccs1)N1c2nc(N3CCCC(C(F)(F)F)C3)ccc2N2CCC[C@H]1C2 (stereo partly drawn) [Example 295] | A (EC1.5<1 μM) | ≥ 150 |  |  | 
O=C(Nc1cnccn1)N1c2nc(N3CCCC(C(F)(F)F)C3)ccc2N2CCC[C@H]1C2 (stereo partly drawn) [Example 293] | A (EC1.5<1 μM) | ≥ 150 |  |  | 
O=C(Nc1ccncc1F)N1c2nc(-c3cccc(Cl)c3)ccc2N2CCC[C@H]1C2 [Example 421] | A (EC1.5<1 μM) | ≥ 150 |  |  | 

SMILES | Tryp AVG EC1.5 (μM) [1] | Emax (Trp peptide substrate) [%] | Emax (Trp mass spectrometry assay) [%] | Tryp AVG EC1.5 (μM) [2] | Tryp AVG EC1.5 (μM) [3]
COc1cc(NC(=O)N2c3nc(-c4cccc(N5CCOCC5)c4)ccc3N3CCC[C@H]2C3)ncn1 [Example 528] | B (EC1.5 1-25 μM) | ≥ 150 |  |  | 
O=C(Nc1cccnc1)N1c2nc(-c3cccc(C(F)(F)F)c3)ccc2N2CCC[C@@H]1C2 [Example 194] |  |  | ≥ 150 |  | A (EC1.5<1 μM)
CC(C)(C)OC(=O)NCCNC(=N)c1ccc(NC(=O)N2c3nc(-c4cccc(C(F)(F)F)c4)ccc3N3CCC[C@H]2C3)cc1 [Example 788] |  |  | ≥ 150 | A (EC1.5<1 μM) | 
C[C@@H](N)CS(=O)(=O)c1cccc(-c2ccc3c(n2)N(C(=O)Nc2cc(-c4ccnn4C)nc(-c4ccnn4C)c2)[C@H]2CCN3C2)c1 [Example 780] |  |  | ≥ 150 | A (EC1.5<1 μM) | 
COc1cc(NC(=O)N2c3nc(-c4cccc(C(F)(F)F)c4)ccc3N3CCC2CC3)nc(OC)n1 [Example 170] |  |  | ≥ 150 |  | A (EC1.5<1 μM)
O=C(Nc1cncc(Br)c1)N1c2nc(-c3cccc(C(F)(F)F)c3)ccc2N2CC[C@H]1C2 [Example 542] | A (EC1.5<1 μM) | ≥ 150 |  |  | 
O=C(Nc1cncc(F)c1)N1c2nc(C3CCCC(C(F)(F)F)C3)ccc2N2CC[C@H]1C2 (stereo partly drawn) [Example 145] |  |  | ≥ 150 |  | A (EC1.5<1 μM)
COc1cc(NC(=O)N2c3nc(-c4ccccc4C#N)ccc3N3CCC[C@H]2C3)ncn1 [Example 440] | C (EC1.5>25 μM) | < 150 |  |  | 
O=C(Nc1cncc(F)c1)N1c2nc(-c3cccc(C(F)(F)F)c3)ccc2N2CC[C@H]1C2 [Example 20] |  |  | ≥ 150 |  | 
O=C(NCc1ncc(-c2cccc(NC(=O)N3c4nc(-c5cccc(C(F)(F)F)c5)ccc4N4CC[C@H]3C4)c2)o1)OCc1ccccc1 [Example 706] |  |  | ≥ 150 | A (EC1.5<1 μM) | 
O=C(Nc1ccc(-n2cncn2)cc1)N1c2nc(-c3cccc(C(F)(F)F)c3)ccc2N2CC[C@H]1C2 [Example 580] | A (EC1.5<1 μM) | ≥ 150 |  |  | 
O=C(Nc1ccccn1)N1c2nc(-c3cccc(N4CC[C@@H](F)C4)c3)ccc2N2CC[C@H]1C2 [Example 279] | A (EC1.5<1 μM) | ≥ 150 |  |  | 
C#CCOc1cccc(NC(=O)N2c3nc(-c4cccc(C5(C(F)(F)F)N=N5)c4)ccc3N3CC[C@H]2C3)c1 [Example 797] |  |  | ≥ 150 | A (EC1.5<1 μM) | 
Cc1cnccc1NC(=O)N1c2nc(-c3cccc(Cl)c3)ccc2N2CC[C@H]1C2 [Example 44] |  |  | ≥ 150 |  | 
O=C(Nc1cccc(-c2cnco2)c1)N1c2cc(-c3cccc(C(F)(F)F)c3)ccc2N2CC[C@H]1C2 [Example 786] |  |  | ≥ 150 | B (EC1.5 1-25 μM) | 
O=C(Nc1cccc(-c2cnco2)c1)N1c2nc(-c3cccc(C(F)(F)F)c3)ccc2N2C[C@@H](O)[C@H]1C2 [Example 665] |  |  | ≥ 150 | A (EC1.5<1 μM) | 
COc1cc(NC(=O)N2c3nc(-c4cncc(Cl)c4)ccc3N3CCC2CC3)ncn1 [Example 552] | C (EC1.5>25 μM) | < 150 |  |  | 
O=C(Nc1ccccn1)N1c2nc(-c3cccc(Cl)c3)ccc2N2CC[C@H]1C2 [Example 19] |  |  | ≥ 150 |  | 
